# Experiments:
# Format in all cases: cell-based
# Bcap-37 = experiment: Breast cancer cell viability, 48 hours, MTA assay; conditions: 48 hours
# Source text: (§1) Cell viabilities were used to calculate “Fraction Affected” (Fa) and “Combination Index” (CI) values using the Chou-Talalay method. Any combination with a CI value<0.70 at a Fa value between 0.25 and 0.75 was defined as positive synergy.
# MDA-MB-468 = experiment: Breast cancer cell viability, 48 hours, MTA assay; conditions: 48 hours
# Source text: as §1
# SK-BR-3 = experiment: Breast cancer cell viability, 48 hours, MTA assay; conditions: 48 hours
# Source text: as §1
# MDA-MB-231 = experiment: Breast cancer cell viability, 48 hours, MTA assay; conditions: Homo sapiens; MDA-MB-231, single agent, 48 hours; read-out: IC50
# Source text: as §1
# HCC1937 = experiment: Breast cancer cell viability, 48 hours, MTA assay; conditions: 48 hours
# Source text: as §1
# MDA-MB-453 = experiment: Breast cancer cell viability, 48 hours, MTA assay; conditions: 48 hours
# Source text: as §1
# MCF-7 = experiment: Breast cancer cell viability, 48 hours, MTA assay; conditions: 48 hours
# Source text: as §1
# Hs578T = experiment: Breast cancer cell viability, 48 hours, MTA assay; conditions: Hs578T, 48 hours
# Source text: as §1
# BT-549 = experiment: Breast cancer cell viability, 48 hours, MTA assay; conditions: 48 hours
# Source text: as §1
# MDA-MB-361 = experiment: Breast cancer cell viability, 48 hours, MTA assay; conditions: Homo sapiens; MDA-MB-361, single agent, 48 hours; read-out: IC50
# Source text: as §1
# HCC38 = experiment: Breast cancer cell viability, 48 hours, MTA assay; conditions: 48 hours
# Source text: as §1
# MX-1 = experiment: Breast cancer cell viability, 48 hours, MTA assay; conditions: 48 hours
# Source text: as §1
# ZR-75-1 = experiment: Breast cancer cell viability, 48 hours, MTA assay; conditions: 48 hours
# Source text: as §1
# MDA-MB-436 = experiment: Breast cancer cell viability, 48 hours, MTA assay; conditions: Homo sapiens; MDA-MB-436, single agent, 48 hours; read-out: IC50
# Source text: as §1
# T-47D* = experiment: Breast cancer cell viability, 48 hours, MTA assay; conditions: T-47D*, 48 hours
# Source text: as §1
# BT474 = experiment: Breast cancer cell viability, 48 hours, MTA assay; conditions: 48 hours
# Source text: as §1
# [1] = tested on: Her2+ breast cancer cells
# [2] = combination with cmpd A, Chou-Talalay CI
smiles,measurement,setting,value
CS(=O)(=O)CCNCc1ccc(-c2ccc3ncnc(Nc4ccc(OCc5cccc(F)c5)c(Cl)c4)c3c2)o1 [Lapatinib],Synergy,"Bcap-37; Bcap-37, combination with cmpd A, Chou-Talalay CI",S (Any combination with a CI value<0.70 at a Fa value between 0.25 and 0.75 was defined as positive synergy)
same,IC50,"Bcap-37; Homo sapiens, Bcap37, Bcap-37, single agent, read-out: IC50",10.9 µM
same,IC50,"MDA-MB-468; Homo sapiens, MDA-MB-468, single agent, read-out: IC50",5.6 µM
same,Synergy,"MDA-MB-468; MDA-MB-468, combination with cmpd A, Chou-Talalay CI",S (Any combination with a CI value<0.70 at a Fa value between 0.25 and 0.75 was defined as positive synergy)
same,IC50,"SK-BR-3; Homo sapiens, SK-BR-3, single agent, read-out: IC50",0.06 µM
same,Synergy,"SK-BR-3; SK-BR-3, combination with cmpd A, Chou-Talalay CI",S (Any combination with a CI value<0.70 at a Fa value between 0.25 and 0.75 was defined as positive synergy)
same,IC50,MDA-MB-231,7.17 µM
same,Synergy,"HCC1937; HCC1937, combination with cmpd A, Chou-Talalay CI",S (Any combination with a CI value<0.70 at a Fa value between 0.25 and 0.75 was defined as positive synergy)
same,IC50,"HCC1937; Homo sapiens, HCC1937, single agent, read-out: IC50",5.56 µM
same,IC50,"MDA-MB-453; Homo sapiens, MDA-MB-453, single agent, read-out: IC50",0.13 µM
same,Synergy,"MDA-MB-453; MDA-MB-453, combination with cmpd A, Chou-Talalay CI",S (Any combination with a CI value<0.70 at a Fa value between 0.25 and 0.75 was defined as positive synergy)
same,IC50,"MCF-7; Homo sapiens, MCF7, MCF-7, single agent, read-out: IC50",5.78 µM
same,Synergy,"MCF-7; MCF-7, combination with cmpd A, Chou-Talalay CI",S (Any combination with a CI value<0.70 at a Fa value between 0.25 and 0.75 was defined as positive synergy)
same,IC50,"Hs578T; Homo sapiens, Hs-578T, single agent, read-out: IC50",5.77 µM
same,Synergy,Hs578T; [2],S (Any combination with a CI value<0.70 at a Fa value between 0.25 and 0.75 was defined as positive synergy)
same,Synergy,"BT-549; BT-549, combination with cmpd A, Chou-Talalay CI",S (Any combination with a CI value<0.70 at a Fa value between 0.25 and 0.75 was defined as positive synergy)
same,IC50,"BT-549; Homo sapiens, BT-549, single agent, read-out: IC50",6.53 µM
same,IC50,MDA-MB-361,9.31 µM
same,Synergy,"HCC38; HCC38, combination with cmpd A, Chou-Talalay CI",S (Any combination with a CI value<0.70 at a Fa value between 0.25 and 0.75 was defined as positive synergy)
same,IC50,"HCC38; Homo sapiens, HCC38, single agent, read-out: IC50",5.05 µM
same,IC50,"MX-1; Homo sapiens, MX1, MX-1, single agent, read-out: IC50",1.01 µM
same,Synergy,"MX-1; MX-1, combination with cmpd A, Chou-Talalay CI",S (Any combination with a CI value<0.70 at a Fa value between 0.25 and 0.75 was defined as positive synergy)
same,IC50,"ZR-75-1; Homo sapiens, ZR-75-1, single agent, read-out: IC50",2.69 µM
same,Synergy,"ZR-75-1; ZR-75-1, combination with cmpd A, Chou-Talalay CI",S (Any combination with a CI value<0.70 at a Fa value between 0.25 and 0.75 was defined as positive synergy)
same,IC50,MDA-MB-436,9.31 µM
same,IC50,"T-47D*; Homo sapiens, T47D, single agent, read-out: IC50",23.3 µM
same,Synergy,T-47D*; [2],S (Any combination with a CI value<0.70 at a Fa value between 0.25 and 0.75 was defined as positive synergy)
same,Synergy,"BT474; BT474, combination with cmpd A, Chou-Talalay CI",S (Any combination with a CI value<0.70 at a Fa value between 0.25 and 0.75 was defined as positive synergy)
same,IC50,"BT474; Homo sapiens, BT-474, BT474, single agent, read-out: IC50",0.04 µM
same,cytotoxicity of the combination with Compound A,[1],synergistic cytotoxicity

# From patent US10722512B2, “Combinations of histone deacetylase inhibitors and either HER2 inhibitors or PI3K inhibitors” (Acetylon Pharmaceuticals, Inc., priority 2013, dated 2020)
